Data: the NIST ThermoML archive (doi:10.1016/j.fluid.2010.03.042)
Numbers after ± are expanded uncertainties.

Test: xn = mol fraction of the nth substance listed
Conditions: Liquid, Vibrating tube method

CCCCO [butan-1-ol] + O=C=O
Conditions	mass density [kg/m3]
313.22 K, x2 = 0.1294	806.8 ± 0.5
313.22 K, x2 = 0.2204	816.8 ± 0.6
313.22 K, x2 = 0.2354	818.6 ± 0.7
313.22 K, x2 = 0.3409	823.7 ± 0.5
313.22 K, x2 = 0.4311	826.1 ± 0.4
313.22 K, x2 = 0.5847	827.7 ± 0.9
313.22 K, x2 = 0.8543	797 ± 0.4
363.17 K, x2 = 0.1186	711.3 ± 1.6
363.17 K, x2 = 0.1985	762 ± 1.3
363.17 K, x2 = 0.2821	764.7 ± 0.4
363.17 K, x2 = 0.3623	765.5 ± 0.4
363.17 K, x2 = 0.4604	765.5 ± 0.4
363.17 K, x2 = 0.5637	760.6 ± 0.8
363.17 K, x2 = 0.6867	750.9 ± 3
363.17 K, x2 = 0.7105	745.8 ± 4.9
363.17 K, x2 = 0.7597	726.6 ± 5.9

CCC(C)O (centres undefined) [butan-2-ol] + O=C=O
Conditions	mass density [kg/m3]
313.21 K, x2 = 0.166	795.6 ± 0.8
313.21 K, x2 = 0.2247	807.4 ± 0.6
313.21 K, x2 = 0.3339	813.7 ± 0.5
313.21 K, x2 = 0.435	816.8 ± 0.5
313.21 K, x2 = 0.5177	818.9 ± 0.4
313.21 K, x2 = 0.6282	818.5 ± 0.4
313.21 K, x2 = 0.7453	817.2 ± 0.5
313.21 K, x2 = 0.7457	817.5 ± 0.5
313.21 K, x2 = 0.8604	815.4 ± 0.6
313.21 K, x2 = 0.9197	813.8 ± 0.7
333.12 K, x2 = 0.137	771.6 ± 0.5
333.12 K, x2 = 0.2174	782.3 ± 0.5
333.12 K, x2 = 0.3029	786.1 ± 0.5
333.12 K, x2 = 0.3944	790.2 ± 0.5
333.12 K, x2 = 0.4533	791.8 ± 0.4
333.12 K, x2 = 0.5642	790.7 ± 0.4
333.12 K, x2 = 0.6485	787.2 ± 0.8
333.12 K, x2 = 0.7937	775.5 ± 2.3
333.12 K, x2 = 0.8376	758.6 ± 12
363.06 K, x2 = 0.1273	743.6 ± 0.4
363.06 K, x2 = 0.1978	746.7 ± 0.4
363.06 K, x2 = 0.2588	747.7 ± 0.4
363.06 K, x2 = 0.2793	748.3 ± 0.5
363.06 K, x2 = 0.3584	743.8 ± 0.6
363.06 K, x2 = 0.4344	738.3 ± 1.6
363.06 K, x2 = 0.5565	709.3 ± 3.9
363.06 K, x2 = 0.6978	647.2 ± 6
363.06 K, x2 = 0.7871	611.7 ± 6.3
